Data published in US6201006A, “Aromatic amidine derivatives useful as selective thrombin inhibitors” (C & C Research Laboratories, priority 1996, dated 2001).
Several values for one entry are separate records, joined by “and”; a condition that tells them apart may be missing. Equal entries are not always repeated. Where two headings read alike, the source gives them in different places.

What was measured:
[1] = Pharmacokinetic test in rats (intravenous injection and oral administration); format: in vivo, S.D. male rats; settings: for bioavailability: oral vs intravenous
Description: S.D. male rats weighing 200±20 g which had fasted overnight were subjected to cannulation at their femoral veins and arteries. Compound 88 prepared in Example 62 was dissolved in physiological saline and then administered to the rats both by intravenous injection and oral administration. Blood was taken at prescribed intervals of time and then immediately mixed with methanol. The mixture was centrifuged (15,000 rpm, 5 min., 4° C.) to obtain quantitative amount of the supernatant which was then subjected to HPLC in Diode Array Detector at 254 nm to analyse the concentration of the test compound in the blood.

[2] = tested on: thrombin time (TT) in rat plasma; experiment: Thrombin time (TT) in rat plasma after oral administration; format: in vivo, SD male rats; settings: TT after / TT before administration
Description: SD male rats weighing 220±20 g which had fasted overnight were used as experimental animals. Blood taken from the hearts of the experimental animals just before administration of the test compound and at 30, 60, 120 and 240 minutes after oral administration of the test compound was mixed with 0.108M sodium citrate in the ratio of 9:1. The mixtures thereby obtained were centrifuged at 15,000 rpm for 5 minutes at 4° C. to separate the plasma, which was stored at -20° C. until the TT was measured by means of the method described below.
200 μl of Owren's buffer was added to 50 μl of the plasma and 100 μl of the diluted plasma thereby obtained was injected into the vial of a coagulometer and then incubated for 2 minutes at 37° C. To each vial was added 100 μl of thrombin at a concentration of 20 U/ml, which had prewarmed at 37° C., to measure the time (TT) until clotting occurred. The ratio of the TT in rat plasma after administration of the test compound to the TT in rat plasma before administration of the test compound was calculated.

human thrombin = target: T1, human thrombin (Homo sapiens, UniProt P00734); experiment: Inhibitory activity for thrombin (chromogenic substrate hydrolysis, 405 nm); format: biochemical
T1 construct: purchased Sigma T-6759
How it was run: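 Thrombin: human enzyme (5 units/ml stock, 0.1% BSA) acted for 20 min on N-benzoyl-Phe-Val-Arg-p-nitroanilide in 125 mM NaCl, 50 mM Tris-HCl pH 8.0, with compounds dissolved in 50% methanol. Hydrolysis was read at 405 nm. Selectivity index was trypsin IC50 divided by thrombin IC50.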

CCn1c(CC[C@@H]2CCCN2C(=O)[C@H]2CCCN2CC(=O)O)cc2ccc(C(=N)N)cc21 [Compound 88, 2-[(R)-2-[[(S)-2-[2-(6-amidino-1-ethylindol-2-yl)ethyl]pyrrolidinyl]carbonyl]pyrrolidinyl]acetic acid]
Blood concentration, individual rats (Rat-1 to Rat-5) ([1]; i.v. 10 mg/kg, 0.000 h): 0 ng/mL | Blood concentration, individual rats (Rat-1 to Rat-5) ([1]; i.v. 10 mg/kg, 0.033 h, 10 mg/kg, 1.98 min): 11186 ng/mL and 25999 ng/mL and 23841 ng/mL and 28971 ng/mL and 18505 ng/mL | Blood concentration, individual rats (Rat-1 to Rat-5) ([1]; i.v. 10 mg/kg, 0.083 h, 10 mg/kg, 4.98 min): 11984 ng/mL and 10776 ng/mL and 14222 ng/mL and 11623 ng/mL | Blood concentration, individual rats (Rat-1 to Rat-5) ([1]; i.v. 10 mg/kg, 0.250 h, 10 mg/kg, 15 min): 2707 ng/mL and 4629 ng/mL and 3531 ng/mL and 5982 ng/mL and 3895 ng/mL | Blood concentration, individual rats (Rat-1 to Rat-5) ([1]; i.v. 10 mg/kg, 0.500 h, 10 mg/kg, 30 min): 816 ng/mL and 1963 ng/mL and 1685 ng/mL and 2939 ng/mL and 1516 ng/mL | Blood concentration, individual rats (Rat-1 to Rat-5) ([1]; i.v. 10 mg/kg, 1.000 h, 10 mg/kg, 60 min): 784 ng/mL and 773 ng/mL and 577 ng/mL and 1204 ng/mL and 535 ng/mL | Blood concentration, individual rats (Rat-1 to Rat-5) ([1]; i.v. 10 mg/kg, 2.000 h, 10 mg/kg): 0 ng/mL | Blood concentration, individual rats (Rat-1 to Rat-5) ([1]; i.v. 10 mg/kg, 2.000 h, 10 mg/kg, 120 min): 204 ng/mL and 98 ng/mL and 424 ng/mL and 162 ng/mL | Blood concentration, individual rats (Rat-1 to Rat-5) ([1]; i.v. 10 mg/kg, 4.000 h, 10 mg/kg): 0 ng/mL | Blood concentration, individual rats (Rat-1 to Rat-5) ([1]; i.v. 10 mg/kg, 4.000 h, 10 mg/kg, 240 min): 121 ng/mL and 55 ng/mL | Blood concentration, individual rats (Rat-1 to Rat-5) ([1]; i.v. 10 mg/kg, 6.000 h, 10 mg/kg): 0 ng/mL | Blood concentration, individual rats (Rat-1 to Rat-5) ([1]; i.v. 10 mg/kg, 6.000 h, 10 mg/kg, 360 min): 51 ng/mL | Blood concentration, individual rats (Rat-1 to Rat-5) ([1]; i.v. 10 mg/kg, 24.000 h): 0 ng/mL | Blood concentration, individual rats (Rat-1 to Rat-5) ([1]; oral 100 mg/kg, 0.000 h): 0 ng/mL | Blood concentration, individual rats (Rat-1 to Rat-5) ([1]; oral 100 mg/kg, 0.033 h, 100 mg/kg, 1.98 min): 11186 ng/mL and 25999 ng/mL and 23841 ng/mL and 28971 ng/mL and 18505 ng/mL | Blood concentration, individual rats (Rat-1 to Rat-5) ([1]; oral 100 mg/kg, 0.083 h, 100 mg/kg, 4.98 min): 11984 ng/mL and 10776 ng/mL and 14222 ng/mL and 11623 ng/mL | Blood concentration, individual rats (Rat-1 to Rat-5) ([1]; oral 100 mg/kg, 0.250 h, 100 mg/kg, 15 min): 2707 ng/mL and 4629 ng/mL and 3531 ng/mL and 5982 ng/mL and 3895 ng/mL | Blood concentration, individual rats (Rat-1 to Rat-5) ([1]; oral 100 mg/kg, 0.500 h, 100 mg/kg, 30 min): 816 ng/mL and 1963 ng/mL and 1685 ng/mL and 2939 ng/mL and 1516 ng/mL | Blood concentration, individual rats (Rat-1 to Rat-5) ([1]; oral 100 mg/kg, 1.000 h, 100 mg/kg, 60 min): 784 ng/mL and 773 ng/mL and 577 ng/mL and 1204 ng/mL and 535 ng/mL | Blood concentration, individual rats (Rat-1 to Rat-5) ([1]; oral 100 mg/kg, 2.000 h, 100 mg/kg): 0 ng/mL | Blood concentration, individual rats (Rat-1 to Rat-5) ([1]; oral 100 mg/kg, 2.000 h, 100 mg/kg, 120 min): 204 ng/mL and 98 ng/mL and 424 ng/mL and 162 ng/mL | Blood concentration, individual rats (Rat-1 to Rat-5) ([1]; oral 100 mg/kg, 4.000 h, 100 mg/kg): 0 ng/mL | Blood concentration, individual rats (Rat-1 to Rat-5) ([1]; oral 100 mg/kg, 4.000 h, 100 mg/kg, 240 min): 121 ng/mL and 55 ng/mL | Blood concentration, individual rats (Rat-1 to Rat-5) ([1]; oral 100 mg/kg, 6.000 h, 100 mg/kg): 0 ng/mL | Blood concentration, individual rats (Rat-1 to Rat-5) ([1]; oral 100 mg/kg, 6.000 h, 100 mg/kg, 360 min): 51 ng/mL | Blood concentration, individual rats (Rat-1 to Rat-5) ([1]; oral 100 mg/kg, 24.000 h): 0 ng/mL | concentration at 0.083 h ([1]; rat, blood, iv, 10 mg/kg, i.v. 10 mg/kg, 0.083 h, read-out: Blood concentration, individual rats (Rat-1 to Rat-5)): 8790 ng/mL | concentration at 6 h ([1]; rat, blood, iv, 10 mg/kg, i.v. 10 mg/kg, 6.000 h, read-out: Blood concentration, individual rats (Rat-1 to Rat-5)): 90 ng/mL | concentration at 0.033 h ([1]; rat, blood, iv, 10 mg/kg, rats, i.v. 10 mg/kg, 0.033 h): 21700 ng/mL | concentration at 0.083 h ([1]; rat, blood, iv, 10 mg/kg, rats, i.v. 10 mg/kg, 0.083 h, read-out: Blood concentration, Mean): 11500 ng/mL | concentration at 0.25 h ([1]; rat, blood, iv, 10 mg/kg, rats, i.v. 10 mg/kg, 0.250 h): 4150 ng/mL | concentration at 0.5 h ([1]; rat, blood, iv, 10 mg/kg, rats, i.v. 10 mg/kg, 0.500 h): 1780 ng/mL | concentration at 1 h ([1]; rat, blood, iv, 10 mg/kg, rats, i.v. 10 mg/kg, 1.000 h): 775 ng/mL | concentration at 2 h ([1]; rat, blood, iv, 10 mg/kg, rats, i.v. 10 mg/kg, 2.000 h): 178 ng/mL | concentration at 4 h ([1]; rat, blood, iv, 10 mg/kg, rats, i.v. 10 mg/kg, 4.000 h): 35 ng/mL | concentration at 6 h ([1]; rat, blood, iv, 10 mg/kg, rats, i.v. 10 mg/kg, 6.000 h, read-out: Blood concentration, Mean): 28 ng/mL | concentration at 0.083 h ([1]; rat, blood, po, 100 mg/kg, oral 100 mg/kg, 0.083 h, read-out: Blood concentration, individual rats (Rat-1 to Rat-5)): 8790 ng/mL | concentration at 6 h ([1]; rat, blood, po, 100 mg/kg, oral 100 mg/kg, 6.000 h, read-out: Blood concentration, individual rats (Rat-1 to Rat-5)): 90 ng/mL | concentration at 0.033 h ([1]; rat, blood, po, 100 mg/kg, rats, oral 100 mg/kg, 0.033 h): 21700 ng/mL | concentration at 0.083 h ([1]; rat, blood, po, 100 mg/kg, rats, oral 100 mg/kg, 0.083 h, read-out: Blood concentration, Mean): 11500 ng/mL | concentration at 0.25 h ([1]; rat, blood, po, 100 mg/kg, rats, oral 100 mg/kg, 0.250 h): 4150 ng/mL | concentration at 0.5 h ([1]; rat, blood, po, 100 mg/kg, rats, oral 100 mg/kg, 0.500 h): 1780 ng/mL | concentration at 1 h ([1]; rat, blood, po, 100 mg/kg, rats, oral 100 mg/kg, 1.000 h): 775 ng/mL | concentration at 2 h ([1]; rat, blood, po, 100 mg/kg, rats, oral 100 mg/kg, 2.000 h): 178 ng/mL | concentration at 4 h ([1]; rat, blood, po, 100 mg/kg, rats, oral 100 mg/kg, 4.000 h): 35 ng/mL | concentration at 6 h ([1]; rat, blood, po, 100 mg/kg, rats, oral 100 mg/kg, 6.000 h, read-out: Blood concentration, Mean): 28 ng/mL | bioavailability ([1]; rat, blood, po, rats, read-out: Bioavailability): 32.6% | half-life ([1]; rat, blood, rats, mean ± error, read-out: Elimination Half-life (converted)): 1.07 ± 0.27 h | half-life ([1]; rat, blood, rats, read-out: elimination half-time): 1.07 h | Blood concentration, Mean ([1]; rats, i.v. 10 mg/kg, 0.000 h): 0 ng/mL | Blood concentration, Mean ([1]; rats, i.v. 10 mg/kg, 24.000 h): 0 ng/mL | distribution and disappearance after intravenous injection ([1]; rats, intravenous injection): rapidly distributed in the body and slowly disappeared | Blood concentration, Mean ([1]; rats, oral 100 mg/kg, 0.000 h): 0 ng/mL | Blood concentration, Mean ([1]; rats, oral 100 mg/kg, 24.000 h): 0 ng/mL | bioavailability ([1]; rats): 32.62 ± 7.69% | Plasma TT ratio after administration to rat ([2]; 30 mg/kg oral): 2.62 | Plasma TT ratio after administration to rat ([2]; 50 mg/kg oral): 7.83 | Selectivity (trypsin/thrombin) (human thrombin; IC50 for trypsin divided by IC50 for thrombin): 8.1 | IC50 (human thrombin; human thrombin, 20 min, pH 8.0, N-benzoyl-Phe-Val-Arg-p-nitroanilide): 15.9 nM
